Experimental data taken from ChEMBL document CHEMBL2203140, “Syntheses and structure-activity relationship studies of N-substituted-β-D-glucosaminides as selective cytotoxic agents” (Bioorg Med Chem Lett, 2012).

How the values were obtained:
Type in all cases: functional, cell-based
[1] = test system: HT-1080; test: Cytotoxicity against human HT1080 cells after 48 hrs by MTT assay; conditions: HT-1080, 48 h
[2] = test system: HCT-116; test: Cytotoxicity against human HCT116 cells after 48 hrs by MTT assay; conditions: HCT-116, 48 h
[3] = test system: HepG2; test: Cytotoxicity against human HepG2 cells after 48 hrs by MTT assay; conditions: HepG2, 48 h
[4] = test system: A549; test: Cytotoxicity against human A549 cells after 48 hrs by MTT assay; conditions: A549, 48 h
[5] = test system: MCF7; test: Cytotoxicity against human MCF7 cells after 48 hrs by MTT assay; conditions: MCF7, 48 h
[6] = test system: HeLa; test: Cytotoxicity against human HeLa cells after 48 hrs by MTT assay

Compound	IC50 [1]	IC50 [2]	IC50 [3]	IC50 [4]	IC50 [5]	IC50 [6]
COc1cccc(/C=C/C(=O)N[C@H]2[C@H](O[C@H]3CC[C@@]4(C)C(=CC[C@H]5[C@@H]6C[C@@H]7O[C@]8(CC[C@@H](C)CO8)[C@@H](C)[C@@H]7[C@@]6(C)CC[C@@H]54)C3)O[C@H](CO)[C@@H](O)[C@@H]2O)c1OC	21.2 µM	47.4 µM	45.6 µM	43.4 µM	44.4 µM	36.2 µM
COc1cc(/C=C/C(=O)N[C@H]2[C@H](O[C@H]3CC[C@@]4(C)C(=CC[C@H]5[C@@H]6C[C@@H]7O[C@]8(CC[C@@H](C)CO8)[C@@H](C)[C@@H]7[C@@]6(C)CC[C@@H]54)C3)O[C@H](CO)[C@@H](O)[C@@H]2O)cc(OC)c1OC	> 50 µM	> 50 µM	> 50 µM	> 50 µM	> 50 µM	> 50 µM
C[C@@H]1CC[C@@]2(OC1)O[C@H]1C[C@H]3[C@@H]4CC=C5C[C@@H](O[C@@H]6O[C@H](CO)[C@@H](O)[C@H](O)[C@H]6NC(=O)/C=C/c6cccc(Cl)c6)CC[C@]5(C)[C@H]4CC[C@]3(C)[C@H]1[C@@H]2C	> 50 µM	> 50 µM	> 50 µM	> 50 µM	> 50 µM	> 50 µM
COc1ccc(OC)c(/C=C/C(=O)N[C@H]2[C@H](O[C@H]3CC[C@@]4(C)C(=CC[C@H]5[C@@H]6C[C@@H]7O[C@]8(CC[C@@H](C)CO8)[C@@H](C)[C@@H]7[C@@]6(C)CC[C@@H]54)C3)O[C@H](CO)[C@@H](O)[C@@H]2O)c1	> 50 µM	35.6 µM	31.7 µM	47.8 µM	> 50 µM	32.2 µM
COc1ccc(/C=C/C(=O)N[C@H]2[C@H](O[C@H]3CC[C@@]4(C)C(=CC[C@H]5[C@@H]6C[C@@H]7O[C@]8(CC[C@@H](C)CO8)[C@@H](C)[C@@H]7[C@@]6(C)CC[C@@H]54)C3)O[C@H](CO)[C@@H](O)[C@@H]2O)cc1	3.5 µM	29.5 µM	30.7 µM	24.4 µM	0.5 µM	6.1 µM
COc1ccccc1/C=C/C(=O)N[C@H]1[C@H](O[C@H]2CC[C@@]3(C)C(=CC[C@H]4[C@@H]5C[C@@H]6O[C@]7(CC[C@@H](C)CO7)[C@@H](C)[C@@H]6[C@@]5(C)CC[C@@H]43)C2)O[C@H](CO)[C@@H](O)[C@@H]1O	4.3 µM	38.9 µM	29.5 µM	23.1 µM	23.1 µM	27.5 µM
Cc1ccc(/C=C/C(=O)N[C@H]2[C@H](O[C@H]3CC[C@@]4(C)C(=CC[C@H]5[C@@H]6C[C@@H]7O[C@]8(CC[C@@H](C)CO8)[C@@H](C)[C@@H]7[C@@]6(C)CC[C@@H]54)C3)O[C@H](CO)[C@@H](O)[C@@H]2O)cc1	23.5 µM	40.4 µM	35.5 µM	41.6 µM	5.3 µM	6.5 µM
C[C@@H]1CC[C@@]2(OC1)O[C@H]1C[C@H]3[C@@H]4CC=C5C[C@@H](O[C@@H]6O[C@H](CO)[C@@H](O)[C@H](O)[C@H]6NC(=O)NN6CCCCC6)CC[C@]5(C)[C@H]4CC[C@]3(C)[C@H]1[C@@H]2C	35.1 µM	> 50 µM	> 50 µM	> 50 µM	> 50 µM	> 50 µM
C[C@@H]1CC[C@@]2(OC1)O[C@H]1C[C@H]3[C@@H]4CC=C5C[C@@H](O[C@@H]6O[C@H](CO)[C@@H](O)[C@H](O)[C@H]6NC(=O)NC(C)(C)C)CC[C@]5(C)[C@H]4CC[C@]3(C)[C@H]1[C@@H]2C	42.3 µM	> 50 µM	> 50 µM	> 50 µM	26.8 µM	27.6 µM
COc1ccc(/C=N/NC(=S)N[C@H]2[C@H](O[C@H]3CC[C@@]4(C)C(=CC[C@H]5[C@@H]6C[C@@H]7O[C@]8(CC[C@@H](C)CO8)[C@@H](C)[C@@H]7[C@@]6(C)CC[C@@H]54)C3)O[C@H](CO)[C@@H](O)[C@@H]2O)cc1	> 50 µM	38.2 µM	28.2 µM	37.3 µM	> 50 µM	34.8 µM
C[C@@H]1CC[C@@]2(OC1)O[C@H]1C[C@H]3[C@@H]4CC=C5C[C@@H](O[C@@H]6O[C@H](CO)[C@@H](O)[C@H](O)[C@H]6NC(=O)/C=C/c6ccc(F)cc6)CC[C@]5(C)[C@H]4CC[C@]3(C)[C@H]1[C@@H]2C	34.9 µM	35 µM	39.8 µM	33.8 µM	21.2 µM	26.9 µM
C[C@@H]1CC[C@@]2(OC1)O[C@H]1C[C@H]3[C@@H]4CC=C5C[C@@H](O[C@@H]6O[C@H](CO)[C@@H](O)[C@H](O)[C@H]6NC(=O)NCc6ccc(F)cc6)CC[C@]5(C)[C@H]4CC[C@]3(C)[C@H]1[C@@H]2C	42 µM	> 50 µM	> 50 µM	> 50 µM	> 50 µM	> 50 µM
COc1ccc(CNC(=O)N[C@H]2[C@H](O[C@H]3CC[C@@]4(C)C(=CC[C@H]5[C@@H]6C[C@@H]7O[C@]8(CC[C@@H](C)CO8)[C@@H](C)[C@@H]7[C@@]6(C)CC[C@@H]54)C3)O[C@H](CO)[C@@H](O)[C@@H]2O)cc1	> 50 µM	> 50 µM	> 50 µM	> 50 µM	> 50 µM	> 50 µM
C[C@@H]1CC[C@@]2(OC1)O[C@H]1C[C@H]3[C@@H]4CC=C5C[C@@H](O[C@@H]6O[C@H](CO)[C@@H](O)[C@H](O)[C@H]6NC(=S)N/N=C/c6cc(C(F)(F)F)cc(C(F)(F)F)c6)CC[C@]5(C)[C@H]4CC[C@]3(C)[C@H]1[C@@H]2C	> 50 µM	> 50 µM	> 50 µM	> 50 µM	> 50 µM	> 50 µM
C[C@@H]1CC[C@@]2(OC1)O[C@H]1C[C@H]3[C@@H]4CC=C5C[C@@H](O[C@@H]6O[C@H](CO)[C@@H](O)[C@H](O)[C@H]6NC(=O)NC6CC6)CC[C@]5(C)[C@H]4CC[C@]3(C)[C@H]1[C@@H]2C	> 50 µM	> 50 µM	> 50 µM	> 50 µM	> 50 µM	43.5 µM
C[C@@H]1CC[C@@]2(OC1)O[C@H]1C[C@H]3[C@@H]4CC=C5C[C@@H](O[C@@H]6O[C@H](CO)[C@@H](O)[C@H](O)[C@H]6NC(=O)/C=C/c6cccc(Br)c6)CC[C@]5(C)[C@H]4CC[C@]3(C)[C@H]1[C@@H]2C	> 50 µM	> 50 µM	> 50 µM	> 50 µM	> 50 µM	> 50 µM
C[C@@H]1CC[C@@]2(OC1)O[C@H]1C[C@H]3[C@@H]4CC=C5C[C@@H](O[C@@H]6O[C@H](CO)[C@@H](O)[C@H](O)[C@H]6NC(=O)NCc6ccccc6)CC[C@]5(C)[C@H]4CC[C@]3(C)[C@H]1[C@@H]2C	> 50 µM	> 50 µM	> 50 µM	28.5 µM	23.9 µM	27 µM
O=c1[nH]cc(F)c(=O)[nH]1 [FLUOROURACIL]	15.2 µM	36.4 µM	51.5 µM	–	78.6 µM	63.4 µM
CCCCCCCNC(=O)N[C@H]1[C@H](O[C@H]2CC[C@@]3(C)C(=CC[C@H]4[C@@H]5C[C@@H]6O[C@]7(CC[C@@H](C)CO7)[C@@H](C)[C@@H]6[C@@]5(C)CC[C@@H]43)C2)O[C@H](CO)[C@@H](O)[C@@H]1O	43 µM	> 50 µM	> 50 µM	> 50 µM	> 50 µM	> 50 µM
CC(=O)N[C@H]1[C@H](O[C@H]2CC[C@@]3(C)C(=CC[C@H]4[C@@H]5C[C@@H]6O[C@]7(CC[C@@H](C)CO7)[C@@H](C)[C@@H]6[C@@]5(C)CC[C@@H]43)C2)O[C@H](CO)[C@@H](O)[C@@H]1O	> 50 µM	> 50 µM	> 50 µM	> 50 µM	–	–
C[C@@H]1CC[C@@]2(OC1)O[C@H]1C[C@H]3[C@@H]4CC=C5C[C@@H](O[C@@H]6O[C@H](CO)[C@@H](O)[C@H](O)[C@H]6NC(=O)/C=C/c6ccccc6)CC[C@]5(C)[C@H]4CC[C@]3(C)[C@H]1[C@@H]2C	29.8 µM	39.1 µM	36.3 µM	41.8 µM	16 µM	12.8 µM
COc1ccc(/C=C/C(=O)N[C@H]2[C@H](O[C@H]3CC[C@@]4(C)C(=CC[C@H]5[C@@H]6C[C@@H]7O[C@]8(CC[C@@H](C)CO8)[C@@H](C)[C@@H]7[C@@]6(C)CC[C@@H]54)C3)O[C@H](CO)[C@@H](O)[C@@H]2O)cc1OC	> 50 µM	29 µM	25.9 µM	30.3 µM	31.3 µM	26.1 µM
C[C@@H]1CC[C@@]2(OC1)O[C@H]1C[C@H]3[C@@H]4CC=C5C[C@@H](O[C@@H]6O[C@H](CO)[C@@H](O)[C@H](O)[C@H]6NC(=S)N/N=C/c6ccccc6)CC[C@]5(C)[C@H]4CC[C@]3(C)[C@H]1[C@@H]2C	> 50 µM	40 µM	29.5 µM	49.7 µM	48.2 µM	36.2 µM
COc1ccc(/C=C/C(=O)N[C@H]2[C@H](O[C@H]3CC[C@@]4(C)C(=CC[C@H]5[C@@H]6C[C@@H]7O[C@]8(CC[C@@H](C)CO8)[C@@H](C)[C@@H]7[C@@]6(C)CC[C@@H]54)C3)O[C@H](CO)[C@@H](O)[C@@H]2O)c(OC)c1	5.8 µM	42.9 µM	41.3 µM	27.1 µM	26.7 µM	22.3 µM
